According to US11267815B2, “Class of amino-substituted nitrogen-containing fused ring compounds, preparation method therefor, and use thereof” (SHANGHAI RINGENE BIOPHARMA CO., LTD., priority 2017, dated 2022):
pIC50: −log10 of the molar value. Read-outs that look alike come from different tables or passages of the source.

What was measured:
FGFR1 = FGFR1 (Homo sapiens (Human), UniProt P11362); test: Inhibitory activity on kinase FGFR1 (Caliper mobility shift); format: biochemical
Procedure: (1). Preparation of 1×Kinase buffer; (2) Preparation of the gradient concentrations of the compounds: the concentration of the compounds to be tested started from 10 μM, which was 3-fold diluted to prepare 10 dilutions, and then tested in duplicated wells. The compounds were 100-fold serially diluted into 10 dilutions with different final concentrations in 96-well plates, each of which was further diluted with 1×Kinase buffer to prepare an intermediate dilution having a concentration of 5 times the final concentration; (3) adding 5 μL of each of the prepared compound solution into the compound wells of 384-well plates, and each concentration set single well; adding 5 μL of 5% DMSO into negative control wells and positive control wells respectively; (4) preparing a kinase solution having a concentration of 2.5 times the final concentration with 1×kinase buffer; (5) adding 10 μL of kinase solution at a concentration of 2.5 times the final concentration into the compound wells and the positive control wells respectively; and adding 10 μL of 1×Kinase buffer into the negative control wells; (6) centrifuging at 1000 rpm for 30 seconds, and incubating at room temperature for 10 minutes after shaking and mixing evenly; (7) preparing a mixed solution of ATP and Kinase substrate 22 having a concentration of 2.5 times the final concentration with 1×Kinase Buffer; (8) adding 10 μL of the mixed solution of ATP and substrate at a concentration of 2.5 times the final concentration to initiate the reaction; (9) Centrifuging the 384-well plates at 1000 rpm for 30 seconds, and incubating at 28° C. for corresponding time respectively after shaking and mixing; (10) adding 30 μL of stop detection solution to stop the kinase reaction, centrifuging at 1000 rpm for 30 seconds, and shaking and mixing the mixture evenly; (11) reading the conversion rate by Caliper Ezreader II. The dose-effect curve was fitted by the log (inhibitor) vs. response-variable slope of GraphPad Prism 5 with the log value of concentration as the X axis and the percentage inhibition rate as the Y axis, then the IC50 value of each compound on the enzyme activity was obtained.

[1] = test system: various tumor cells (HuH-7, SNU-16, KG1, UM-UC-14, RT-112 etc.); test: Proliferation inhibitory activity on various tumor cells (SRB or CCK8); format: cell-based; details: SRB or CCK8 method; read-out: proliferation inhibitory activities on various tumor cells
xenograft tumors = test: Xenograft tumor growth in nude mice; format: in vivo; details: oral, daily for three weeks, lower dose (even less than 20 mg/kg)
Procedure: 1. The tumor tissue in vigorous growth period was cut into about 1.5 mm^3, and subcutaneously inoculated into the right armpit of nude mice under sterile condition. The diameter of the subcutaneous transplanted tumors in nude mice was measured with vernier caliper, and the animals were randomly divided into groups when the average volume of the tumor reached about 130 mm^3. The embodiment compounds (prepared to the desired concentration with water for injection containing 1% Tween 80 for later use) were orally administered at a predetermined dose every day for three weeks, while a same amount of menstruum was administered in the menstruum control group. During the whole experiment, the diameter of the xenograft tumor was measured twice a week and the weight of the mice was weighed at the same time. The tumor volume (TV) was calculated by the formula: TV=½×a×b^2, where a and b represent length and width respectively. According to the measured results, the relative tumor volume (RTV) was calculated by the formula: RTV=Vt/V0, where V0 was the tumor volume measured when the mice were divided into cages for administration (i.e., d0) and Vt was the tumor volume at each measurement. […]

FGFR1, sequence (P11362 22-822): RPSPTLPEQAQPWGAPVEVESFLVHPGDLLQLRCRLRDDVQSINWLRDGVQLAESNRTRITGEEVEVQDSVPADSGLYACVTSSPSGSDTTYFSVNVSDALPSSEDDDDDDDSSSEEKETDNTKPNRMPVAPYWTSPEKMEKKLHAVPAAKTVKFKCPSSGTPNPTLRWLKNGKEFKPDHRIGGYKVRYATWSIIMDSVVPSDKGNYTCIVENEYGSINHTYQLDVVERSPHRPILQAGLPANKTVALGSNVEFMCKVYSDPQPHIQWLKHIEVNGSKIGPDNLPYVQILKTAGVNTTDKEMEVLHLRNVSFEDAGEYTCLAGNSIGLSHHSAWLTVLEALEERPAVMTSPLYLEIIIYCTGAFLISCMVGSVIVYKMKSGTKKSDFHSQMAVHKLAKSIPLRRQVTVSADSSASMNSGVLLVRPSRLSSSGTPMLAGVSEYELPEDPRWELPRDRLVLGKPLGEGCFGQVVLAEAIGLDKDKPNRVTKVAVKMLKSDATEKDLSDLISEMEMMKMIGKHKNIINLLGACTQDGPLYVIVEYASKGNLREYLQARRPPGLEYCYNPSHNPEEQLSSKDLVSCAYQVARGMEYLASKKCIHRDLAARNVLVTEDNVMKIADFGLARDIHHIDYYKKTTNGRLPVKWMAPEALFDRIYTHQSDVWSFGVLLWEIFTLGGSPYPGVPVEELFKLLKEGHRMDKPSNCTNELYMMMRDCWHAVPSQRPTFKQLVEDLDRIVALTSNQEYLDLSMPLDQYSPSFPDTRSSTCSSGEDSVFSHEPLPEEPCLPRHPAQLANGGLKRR

C=CC(=O)N1CCN(CCCc2cn3c(n2)c(-c2c(Cl)c(OC)cc(OC)c2Cl)cc2cnc(NC)nc23)CC1 [Embodiment 3, 1-(4-(3-(6-(2,6-dichloro-3,5-dimethoxyaniline)-2-(methylamine)imidazo[1′,2′:1,6]pyrido[2,3-d]pyrimidin-8-yl)propyl)piperazine-1-yl)prop-2-en-1-one]
pIC50 (FGFR1; read-out: FGFR1 IC50): > 7.70
pIC50 (FGFR1; read-out: IC50 of inhibitory activity on FGFR1): > 9.00
pIC50 [1]: > 7.00
anti-tumor rate (xenograft tumors): more than 80%
